Measured values published in patent US20240166660A1, “KRAS G12C INHIBITORS” (BeiGene Switzerland GmbH, priority 2021, published 2024).

Biological target: KRAS (aa 1-169) G12C, C51S, C80L, C118S (Homo sapiens (Human), UniProt P01116, C118S/C51S/C80L/G12C)
Assay: Biochemical functional assay: SOS1-mediated nucleotide exchange of GDP-loaded KRAS G12C, binding to GST-cRaf RBD, FRET readout
Conditions: 3 hrs pre-incubation with compound at 24° C., SOS1, GTPyS, bound in uM
How it was run: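 GDP-loaded His-tagged KRAS construct preincubated with compound 3 h at 24° C in 25 mM HEPES pH7.5, 10 mM MgCl2, 0.01% Triton X-100; SOS1 (aa 564-1049), GTPγS and GST-cRaf RBD added for 3 h, then anti-His Tb cryptate/anti-GST XL665 for 3 h. HTRF 665/620 ratio; IC50 by four-parameter logistic fit.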

Chain of KRAS (aa 1-169) G12C, C51S, C80L, C118S (P01116 other isoform, or with tags, fused parts or gaps G12C/C51S/C80L/C118S): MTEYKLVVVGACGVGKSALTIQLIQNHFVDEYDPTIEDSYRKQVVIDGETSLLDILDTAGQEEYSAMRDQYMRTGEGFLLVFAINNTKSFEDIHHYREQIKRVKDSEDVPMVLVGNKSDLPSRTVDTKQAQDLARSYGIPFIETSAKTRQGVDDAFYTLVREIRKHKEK

| SMILES | IC50 |
| --- | --- |
| C=CC(=O)N1CCN(c2nc(N3CC(N(C)C)C3)nc3cc(-c4cccc(Cl)c4)c4c(c23)OCCC4)CC1 [Compound B17, 1-(4-(5-(3-chlorophenyl)-8-(3-(dimethylamino)azetidin-1-yl)-3,4-dihydro-2H-pyrano[2,3-f]quinazolin-10-yl)piperazin-1-yl)prop-2-en-1-one] | > 10 µM |
| C=CC(=O)N1CCN(c2nc(N3CCN(C)CC3)nc3cc(-c4cccc5cccc(Cl)c45)c4c(c23)OCCC4)CC1 [Compound B24, 1-(4-(5-(8-chloronaphthalen-1-yl)-8-(4-methylpiperazin-1-yl)-3,4-dihydro-2H-pyrano[2,3-f]quinazolin-10-yl)piperazin-1-yl)prop-2-en-1-one] | > 10 µM |

Same assay, conditions: 3 hrs pre-incubation with compound at 24° C., SOS1, GTPyS, inhibition of nucleotide exchange

| SMILES | IC50 |
| --- | --- |
| C=C(F)C(=O)N1CCN(c2nc(OC[C@@H]3CCN(C)C3)nc3cc(-c4cccc5cccc(Cl)c45)c4c(c23)OCCC4)C[C@@H]1CC#N [Compound B75, 2-((S)-4-(5-(8-chloronaphthalen-1-yl)-8-(((R)-1-methylpyrrolidin-3-yl)methoxy)-3,4-dihydro-2H-pyrano[2,3-f]quinazolin-10-yl)-1-(2-fluoroacryloyl)piperazin-2-yl)acetonitrile] | 0.044 µM |
| C=CC(=O)N1CC2CN(c3ncnc4cc(-c5c(O)cccc5F)c5c(c34)OC(C)(C)CC5)CC2C1 (stereo not drawn) [Compound A6, 1-(5-(5-(2-fluoro-6-hydroxyphenyl)-2,2-dimethyl-3,4-dihydro-2H-pyrano[2,3-f]quinazolin-10-yl)hexahydropyrrolo[3,4-c]pyrrol-2(1H)-yl)prop-2-en-1-one] | 3.54 µM |
| C=C(F)C(=O)N1CCN(c2nc(OC[C@@H]3CCCN3C)nc3cc(-c4cccc5cccc(Cl)c45)c4ccoc4c23)C[C@@H]1CC#N [Compound B41, 2-((S)-4-(4-(8-chloronaphthalen-1-yl)-7-(((S)-1-methylpyrrolidin-2-yl)methoxy)furo[2,3-f]quinazolin-9-yl)-1-(2-fluoroacryloyl)piperazin-2-yl)acetonitrile] | 0.0038 µM |
| C=C(F)C(=O)N1CCN(c2nc(N3CC(N(C)C)C3)nc3cc(-c4cccc5cccc(Cl)c45)c4c(c23)OCCC4)C[C@@H]1CC#N (single isomer, unassigned) [Compound B102] | 0.354 µM |
| C=CC(=O)N1CCN(c2ncnc3cc(-c4cccc5ccccc45)c4c(c23)OCCC4)C[C@@H]1CC#N [Compound A7, (S)-2-(1-acryloyl-4-(5-(naphthalen-1-yl)-3,4-dihydro-2H-pyrano[2,3-f]quinazolin-10-yl)piperazin-2-yl)acetonitrile] | 0.0431 µM |
| C=CC(=O)N1CCN(c2ncnc3cc(-c4c(C)c(Cl)cc5[nH]ncc45)c4c(c23)OCCC4)C[C@@H]1CC#N [Compound A26, 2-((2S)-1-acryloyl-4-(5-(6-chloro-5-methyl-1H-indazol-4-yl)-3,4-dihydro-2H-pyrano[2,3-f]quinazolin-10-yl)piperazin-2-yl)acetonitrile] | 0.0099 µM |
| C=CC(=O)N1CCN(c2nc(OC[C@@H]3CCCN3C)nc3cc(-c4c(O)cccc4F)c4ccoc4c23)CC1 [Compound B46, 1-(4-(4-(2-fluoro-6-hydroxyphenyl)-7-(((S)-1-methylpyrrolidin-2-yl)methoxy)furo[2,3-f]quinazolin-9-yl)piperazin-1-yl)prop-2-en-1-one] | 0.621 µM |
| C=CC(=O)N1CCN(c2ncnc3cc(-c4cnc(N)cc4C(F)(F)F)c4c(c23)OCCC4)C[C@@H]1CC#N [Compound A22, (S)-2-(1-acryloyl-4-(5-(6-amino-4-(trifluoromethyl)pyridin-3-yl)-3,4-dihydro-2H-pyrano[2,3-f]quinazolin-10-yl)piperazin-2-yl)acetonitrile] | 0.256 µM |
| C=C(F)C(=O)N1CCN(c2nc(OC[C@@H]3CCCN3C)nc3cc(-c4ccc(F)c5sc(N)nc45)c4c(c23)OCCC4)C[C@@H]1CC#N [Compound B29, 2-((S)-4-(5-(2-amino-7-fluorobenzo[d]thiazol-4-yl)-8-(((S)-1-methylpyrrolidin-2-yl)methoxy)-3,4-dihydro-2H-pyrano[2,3-f]quinazolin-10-yl)-1-(2-fluoroacryloyl)piperazin-2-yl)acetonitrile] | 0.00451 µM |
| C=C(F)C(=O)N1CCN(c2nc(OC[C@@H]3CCCN3C)nc3cc(-c4c(Cl)c(Cl)cc5[nH]ncc45)c4c(c23)OCCC4)C[C@@H]1CC#N [Compound B36, 2-((2S)-4-(5-(5,6-dichloro-1H-indazol-4-yl)-8-(((S)-1-methylpyrrolidin-2-yl)methoxy)-3,4-dihydro-2H-pyrano[2,3-f]quinazolin-10-yl)-1-(2-fluoroacryloyl)piperazin-2-yl)acetonitrile] | 0.047 µM |
| C=C(F)C(=O)N1CCN(c2nc(O[C@@H]3CN(C)C[C@H]3OC)nc3cc(-c4cccc5cccc(Cl)c45)c4c(c23)OCCC4)C[C@@H]1CC#N [Compound B55, 2-((S)-4-(5-(8-chloronaphthalen-1-yl)-8-(((3R,4R)-4-methoxy-1-methylpyrrolidin-3-yl)oxy)-3,4-dihydro-2H-pyrano[2,3-f]quinazolin-10-yl)-1-(2-fluoroacryloyl)piperazin-2-yl)acetonitrile] | 0.134 µM |
| C=C(F)C(=O)N1CCN(c2nc(OC[C@@H]3CCCN3C)nc3cc(-c4cccc5cccc(Cl)c45)c4c(c23)OCCC4)C[C@@H]1CC#N [Compound B66, 2-((S)-4-(5-(8-chloronaphthalen-1-yl)-8-(((S)-1-methylpyrrolidin-2-yl)methoxy)-3,4-dihydro-2H-pyrano[2,3-f]quinazolin-10-yl)-1-(2-fluoroacryloyl)piperazin-2-yl)acetonitrile] | 0.0093 µM |
| C=CC(=O)N1CCN(c2nc(OC[C@@H]3CCCN3C)nc3cc(-c4cccc5cccc(Cl)c45)c4c(c23)OCCC4)C[C@@H]1CC#N [Compound B82, 2-((S)-1-acryloyl-4-(5-(8-chloronaphthalen-1-yl)-8-(((S)-1-methylpyrrolidin-2-yl)methoxy)-3,4-dihydro-2H-pyrano[2,3-f]quinazolin-10-yl)piperazin-2-yl)acetonitrile] | 0.0062 µM |
| C=C(F)C(=O)N1CCN(c2ncnc3cc(-c4c(Cl)c(C)cc5[nH]ncc45)c4c(c23)OCCC4)C[C@@H]1CC#N [Compound A23, 2-((2S)-4-(5-(5-chloro-6-methyl-1H-indazol-4-yl)-3,4-dihydro-2H-pyrano[2,3-f]quinazolin-10-yl)-1-(2-fluoroacryloyl)piperazin-2-yl)acetonitrile] | 0.346 µM |
| C=C(F)C(=O)N1CCN(c2nc(OC[C@@H]3CCCN3C)nc3cc(-c4ccc(F)c5ccccc45)c4c(c23)OCCC4)C[C@@H]1CC#N [Compound B99, 2-((S)-1-(2-fluoroacryloyl)-4-(5-(4-fluoronaphthalen-1-yl)-8-(((S)-1-methylpyrrolidin-2-yl)methoxy)-3,4-dihydro-2H-pyrano[2,3-f]quinazolin-10-yl)piperazin-2-yl)acetonitrile] | 0.152 µM |
| C=C(F)C(=O)N1CCN(c2nc(OC[C@@H]3CCCN3C)nc3cc(-c4c(Cl)c(C)cc5[nH]ncc45)c4c(c23)OCC4)C[C@@H]1CC#N [Compound B30, 2-((2S)-4-(4-(5-chloro-6-methyl-1H-indazol-4-yl)-7-(((S)-1-methylpyrrolidin-2-yl)methoxy)-2,3-dihydrofuro[2,3-f]quinazolin-9-yl)-1-(2-fluoroacryloyl)piperazin-2-yl)acetonitrile] | 0.0096 µM |
| C=C(F)C(=O)N1CCN(c2nc(N3CC(N(C)C)C3)nc3cc(-c4cccc(F)c4F)c4c(c23)OCCC4)C[C@@H]1CC#N [Compound B9, (S)-2-(4-(5-(2,3-difluorophenyl)-8-(3-(dimethylamino)azetidin-1-yl)-3,4-dihydro-2H-pyrano[2,3-f]quinazolin-10-yl)-1-(2-fluoroacryloyl)piperazin-2-yl)acetonitrile] | 0.456 µM |
| C=CC(=O)N1CCN(c2nc(OC[C@@H]3CCCN3C)nc3cc(-c4c(C)cccc4C)c4ccoc4c23)CC1 [Compound B56, (S)-1-(4-(4-(2,6-dimethylphenyl)-7-((1-methylpyrrolidin-2-yl)methoxy)furo[2,3-f]quinazolin-9-yl)piperazin-1-yl)prop-2-en-1-one] | 0.632 µM |
| C=C(F)C(=O)N1CCN(c2nc(OC[C@@H]3C[C@H]4C[C@H]4N3C)nc3cc(-c4cccc5cccc(Cl)c45)c4c(c23)OCCC4)C[C@@H]1CC#N [Compound B73, 2-((S)-4-(5-(8-chloronaphthalen-1-yl)-8-(((1R,3S,5R)-2-methyl-2-azabicyclo[3.1.0]hexan-3-yl)methoxy)-3,4-dihydro-2H-pyrano[2,3-f]quinazolin-10-yl)-1-(2-fluoroacryloyl)piperazin-2-yl)acetonitrile] | 0.05 µM |
| C=C(F)C(=O)N1CCN(c2nc(OC[C@@H]3CCCN3C)nc3cc(-c4cccc5cccc(F)c45)c4c(c23)OCCC4)C[C@@H]1CC#N [Compound B37, 2-((S)-1-(2-fluoroacryloyl)-4-(5-(8-fluoronaphthalen-1-yl)-8-(((S)-1-methylpyrrolidin-2-yl)methoxy)-3,4-dihydro-2H-pyrano[2,3-f]quinazolin-10-yl)piperazin-2-yl)acetonitrile] | 0.008 µM |
| C=C(F)C(=O)N1CCN(c2nc(OC[C@@H]3CCCN3C)nc3cc(-c4ccccc4C(F)(F)F)c4ccoc4c23)C[C@@H]1CC#N [Compound B40, 2-((S)-1-(2-fluoroacryloyl)-4-(7-(((S)-1-methylpyrrolidin-2-yl)methoxy)-4-(2-(trifluoromethyl)phenyl)furo[2,3-f]quinazolin-9-yl)piperazin-2-yl)acetonitrile] | 0.014 µM |
| C=CC(=O)N1CCN(c2nc(OC[C@@H]3CCCN3C)nc3cc(-c4c(Cl)c(C)cc5[nH]ncc45)c4c(c23)OCC4)CC1 [Compound B28, 1-(4-(4-(5-chloro-6-methyl-1H-indazol-4-yl)-7-(((S)-1-methylpyrrolidin-2-yl)methoxy)-2,3-dihydrofuro[2,3-f]quinazolin-9-yl)piperazin-1-yl)prop-2-en-1-one] | 0.113 µM |
